In ChEMBL document CHEMBL4483862, “Open-source discovery of chemical leads for next-generation chemoprotective antimalarials” (2018) one finds IC50 and IC90 data, which are given here for 63 molecules.

For this assay, the system named is Plasmodium berghei. The assay can be described thus: Luciferase/luciferin-expressing antifolate-resistant parasites were used to infect a culture of HepG2 cells that were pre-incubated with compounds. Infected hepatocytes emit light due to the luciferase reaction. Assay results are presented as the percent inhibition of light emission compared to control. […]. The assay is classed as functional. The following applies: sporozoite; for IC50: read-out: LUCIFERASE INFECTION ASSAY - IC50; for IC90: read-out: LUCIFERASE INFECTION ASSAY - IC90.

One may read the IC50 as the midpoint of a concentration-inhibition curve. Broadly, the IC90 is the point of the concentration-response curve where the effect stands at 90%.

Take `Cc1ccc(-c2csc(NC(=O)CSc3nc4ccccc4c(=O)n3CCCN(C)C)n2)cc1`: the IC50 is over 10 µM and the concentration for an effect of 90% (IC90) is over 10 µM.

Turning to `COc1ccc(OCc2nnc(SCC(=O)NCC3CCCO3)n2N)cc1` (stereo unspecified), the IC50 is over 10 µM and the concentration for an effect of 90% (IC90) was over 10 µM.

`NS(=O)(=O)c1ccc(CCNC(=O)c2ccc3nccnc3c2)cc1`: the IC50 was over 10 µM and the concentration for an effect of 90% (IC90) is over 10 µM.

Turning to `CC(C)Cn1c(-c2cc([N+](=O)[O-])ccc2Cl)nc2c1c(=O)[nH]c(=O)n2Cc1ccccc1`, the concentration for half-maximal inhibition (IC50) is over 10 µM and the 90% effect concentration (IC90) was over 10 µM.

As to `CCn1c(C)nc2cc(C(=O)NNS(=O)(=O)c3cccc(Cl)c3Cl)ccc21.O=S(=O)(O)c1cccc(Cl)c1Cl`, the concentration for half-maximal inhibition (IC50) was over 10 µM and the IC90 is over 10 µM.

As to `COc1cc(OC)c(NC(=O)c2cc3ccccc3cc2OCC(=O)NC(C)c2ccccc2)cc1Cl` (stereo unspecified), the IC50 is over 10 µM and the IC90 is over 10 µM.

Consider `Cc1ccc(-c2nc(SCc3nc(=O)c4ccc(C(=O)O)cc4[nH]3)[nH]c2-c2ccc(C)cc2)cc1`, for which the half-maximal inhibitory concentration (IC50) was over 10 µM and the 90% effect concentration (IC90) is over 10 µM.

With `CC(Sc1nnc(-c2ccc(C(C)(C)C)cc2)n1Cc1ccco1)C(=O)Nc1ccc(Cl)cn1` (stereo unspecified), the concentration for half-maximal inhibition (IC50) was over 10 µM and the IC90 was over 10 µM.

For `Cc1noc(C)c1COc1ccccc1C(=O)N1CCN(S(=O)(=O)c2cccc(C(F)(F)F)c2)CC1`, the IC50 was over 10 µM and the IC90 was over 10 µM.

Consider `Cc1nc(N2CCCCC2)sc1C(=O)c1ccc(SCc2cc(Cl)cc3c2OCOC3)c([N+](=O)[O-])c1`, for which the 50% inhibitory concentration (IC50) is over 10 µM and the 90% effect concentration (IC90) is over 10 µM.

Regarding `Cc1cc(SCC(=O)NNC(=O)c2ccc(NS(=O)(=O)c3cccs3)cc2)nc2ccccc12`, the IC50 is over 10 µM and the 90% effect concentration (IC90) was over 10 µM.

Take `CCC(NCC(O)COc1ccccc1C(C)C)C12CC3CC(CC(C3)C1)C2` (stereo unspecified): the IC50 is over 10 µM and the concentration for an effect of 90% (IC90) is over 10 µM.

Consider `COc1ccc(-c2nn(-c3ccccc3)cc2/C=C/C(=O)Nc2nc3c(C)cccc3s2)cc1OC`, for which the 50% inhibitory concentration (IC50) is 6.8 µM and the 90% effect concentration (IC90) was over 10 µM.

Regarding `CC(C)CCNC(=O)NC(=O)CSc1nn(-c2ccc(F)cc2)c(=S)s1`, the IC50 was over 10 µM and the IC90 is over 10 µM.

Turning to `CC1CCCC(C)N1CCC(=O)NNC(=O)c1cc(-c2ccc(Cl)cc2)nc2ccccc12` (stereo unspecified), the IC50 amounted to 7.66 µM and the IC90 is over 10 µM.

On to `S=c1[nH]c2ccccc2n1C1CCCCC1`, for which the half-inhibitory concentration (IC50) was over 10 µM and the IC90 is over 10 µM.

Turning to `Cc1cc(=O)oc2cc(OCC(=O)OCC(=O)c3c(-c4ccccc4)[nH]c4ccccc34)ccc12`, the IC50 came out at 1.85 µM and the IC90 worked out at 7.83 µM.

As to `O=c1c2ccccc2nc(Sc2ccc([N+](=O)[O-])c(C(F)(F)F)c2)n1-c1ccc(OC(F)F)cc1`, the IC50 is over 10 µM and the 90% effect concentration (IC90) is over 10 µM.

Consider `O=C(NCC12CC3CC(CC(C3)C1)C2)c1ccc2ccccc2c1`, for which the IC50 is over 10 µM and the IC90 is over 10 µM.

On to `Cc1ccc(-c2cc(C(=O)NNC(=O)CC34CC5CC(CC(C5)C3)C4)c3ccccc3n2)cc1`, for which the 50% inhibitory concentration (IC50) is over 10 µM and the IC90 was over 10 µM.

As to `CSc1nn(-c2ccc(C(=O)OCc3c(C)cc(C(C)(C)C)cc3C)cc2)c(=S)s1`, the half-maximal inhibitory concentration (IC50) was over 10 µM and the concentration for an effect of 90% (IC90) was over 10 µM.

For the molecule `c1ccc2c(CSCCC34CC5CC(CC(C5)C3)C4)cccc2c1`, the IC50 is over 10 µM and the concentration for an effect of 90% (IC90) is over 10 µM.

For the molecule `O=C(COC(=O)COc1ccc2c3c(c(=O)oc2c1)CCC3)Nc1ccc(F)c(F)c1F`, the IC50 is over 10 µM and the IC90 was over 10 µM.

In the case of `C=CCn1c(-c2c(C)oc3ccccc23)cs/c1=N\S(=O)(=O)c1cccs1`, the half-maximal inhibitory concentration (IC50) was over 10 µM and the 90% effect concentration (IC90) was over 10 µM.

Take `COC(=O)c1cc(Br)ccc1NC(=O)CCNC(=O)c1cccc(C)c1`: the half-maximal inhibitory concentration (IC50) is over 10 µM and the 90% effect concentration (IC90) is over 10 µM.

As for `CCc1c(C)sc2nc(SCC(=O)Nc3cc(C)on3)n(-c3ccc(O)cc3C)c(=O)c12`, the IC50 worked out at 3.89 µM and the IC90 was 8.83 µM.

As to `Cc1cc(C(=O)CSc2nc3cc([N+](=O)[O-])ccc3n2-c2ccccc2)c(C)n1Cc1ccco1`, the IC50 is over 10 µM and the IC90 is over 10 µM.

As for `CCc1c(C)sc2nc(SCC3COc4ccccc4O3)n(-c3ccc(C)c(C)c3)c(=O)c12` (stereo unspecified), the half-maximal inhibitory concentration (IC50) was over 10 µM and the IC90 was over 10 µM.

For `Cc1cc(C(=O)C(C)OC(=O)c2ccc(S(C)(=O)=O)c([N+](=O)[O-])c2)c(C)n1-c1ccc(Cl)cc1` (stereo unspecified), the IC50 is over 10 µM and the IC90 is over 10 µM.

As to `CCCCNS(=O)(=O)c1ccc2nc(SCc3cccc(OC)c3)[nH]c2c1`, the IC50 was over 10 µM and the concentration for an effect of 90% (IC90) is over 10 µM.

Consider `Cc1ccc(C(C)(C)C)cc1S(=O)(=O)Nc1ccc(C(=O)OC(C)c2nc(=O)c3c(C)c(C)sc3[nH]2)cc1` (stereo unspecified), for which the IC50 is over 10 µM and the 90% effect concentration (IC90) is over 10 µM.

On to `FC(F)(F)c1cnc(Sc2nc(CN3CCOCC3)nc3scc(-c4ccccc4)c23)c(Cl)c1`, for which the 50% inhibitory concentration (IC50) is over 10 µM and the IC90 was over 10 µM.

`Cc1ccccc1C(=O)N1CCC(C(=O)Oc2ccc(Cl)c3ccccc23)CC1`: the 50% inhibitory concentration (IC50) is over 10 µM and the IC90 was over 10 µM.

Regarding `CCOC(=O)c1sc(N)c(C#N)c1COC(=O)C1CCN(S(=O)(=O)c2ccc(C)c(C)c2)CC1`, the half-maximal inhibitory concentration (IC50) is over 10 µM and the IC90 was over 10 µM.

For `CCC(C)c1ccc(-c2cc(C(=O)OCC(=O)N3c4ccccc4NC(=O)C3(C)C)c3ccccc3n2)cc1` (stereo unspecified), the 50% inhibitory concentration (IC50) was 8.86 µM and the IC90 was over 10 µM.

As to `COC(=O)c1ccc(-n2c(C)cc(C(=O)COC(=O)c3cc4c(=O)n5ccccc5nc4s3)c2C)cc1`, the half-inhibitory concentration (IC50) was found to be 9.43 µM and the IC90 was over 10 µM.

Regarding `COc1ccc(-n2c(C)cc(C(=O)CSc3nc4c(n3-c3ccccc3)CCCC4)c2C)cc1`, the IC50 is over 10 µM and the IC90 was over 10 µM.

For the molecule `O=C(Cc1csc(-c2ccccc2)n1)Nc1nc2c(s1)CCCC2`, the IC50 was over 10 µM and the IC90 was over 10 µM.

As for `CCc1c(C)sc2nc(SCc3nc4ccccc4s3)n(-c3ccc(O)cc3C)c(=O)c12`, the 50% inhibitory concentration (IC50) was over 10 µM and the 90% effect concentration (IC90) is over 10 µM.

Consider `CCn1c2ccccc2c2cc(NC(=O)C(C)OC(=O)c3ccc([N+](=O)[O-])o3)ccc21` (stereo unspecified), for which the concentration for half-maximal inhibition (IC50) is over 10 µM and the IC90 was over 10 µM.

Turning to `Clc1nc2ccccc2cc1/C=N/Cc1ccc2c(c1)OCO2`, the half-maximal inhibitory concentration (IC50) is over 10 µM and the IC90 was over 10 µM.

Consider `CCOc1cc(N2CCOCC2)c(OCC)cc1NC(=O)c1n[nH]c(=O)c2ccccc12`, for which the IC50 was over 10 µM and the 90% effect concentration (IC90) was over 10 µM.

In the case of `COc1ccc([N+](=O)[O-])cc1NC(=O)COC(=O)CSCc1c(C)noc1C`, the IC50 is over 10 µM and the IC90 was over 10 µM.

With `CC(C)c1ccc(N(C(=O)CC(c2ccccc2)c2ccccc2)c2nc3ccccc3s2)cc1`, the IC50 is over 10 µM and the concentration for an effect of 90% (IC90) is over 10 µM.

For the molecule `O=C(/C=C/c1cn(-c2ccccc2)nc1-c1ccc(F)cc1)NCC1(N2CCCCC2)CCCCC1`, the IC50 is over 10 µM and the IC90 is over 10 µM.

Regarding `COc1ccc(OCCCC(=O)N(Cc2ccccc2)c2nc3c(C)cccc3s2)cc1`, the IC50 was over 10 µM and the IC90 is over 10 µM.

For the molecule `CN(C)c1ccc(/C=C2\CCn3c2nc2scc(-c4ccccc4)c2c3=O)cc1[N+](=O)[O-]`, the 50% inhibitory concentration (IC50) was over 10 µM and the IC90 was over 10 µM.

Take `CC(OC(=O)c1ccccc1NS(=O)(=O)c1ccc2c(c1)OCCO2)C(=O)Nc1ccc([N+](=O)[O-])cc1C(F)(F)F` (stereo unspecified): the IC50 was over 10 µM and the 90% effect concentration (IC90) is over 10 µM.

For the molecule `Cc1ccc(C(=O)NC(c2ccccc2)c2ccccc2)s1`, the IC50 is over 10 µM and the 90% effect concentration (IC90) is over 10 µM.

As to `O=c1c2ccccc2nc(SCc2coc(-c3cccs3)n2)n1-c1ccc(Cl)cc1`, the IC50 is over 10 µM and the IC90 was over 10 µM.

`O=C(Nc1nc(-c2ccccn2)cs1)c1cc([N+](=O)[O-])ccc1N1CCC(Cc2ccccc2)CC1`: the half-inhibitory concentration (IC50) is over 10 µM and the IC90 was over 10 µM.

For `Clc1nc2ccccc2cc1/C=N/C1CCCCC1`, the half-inhibitory concentration (IC50) was over 10 µM and the 90% effect concentration (IC90) was over 10 µM.

Regarding `Cc1ccccc1-n1c(Sc2ncccc2[N+](=O)[O-])nc2ccccc2c1=O`, the IC50 is over 10 µM and the IC90 was over 10 µM.

With `COc1ccc(OCCCC(=O)N(c2nc3ccccc3s2)c2cc(C(F)(F)F)ccc2Cl)cc1`, the half-maximal inhibitory concentration (IC50) was over 10 µM and the IC90 was over 10 µM.

Take `CC(C)(C)C(=O)/C=c1\s/c(=C\c2ccsc2)c(=O)n1CC(=O)N1CCc2ccccc21`: the 50% inhibitory concentration (IC50) is over 10 µM and the 90% effect concentration (IC90) is over 10 µM.

In the case of `CCOC(C(=O)Nc1ccccc1Cc1ccccc1)(c1ccccc1)c1ccccc1`, the IC50 is over 10 µM and the IC90 was over 10 µM.

For `O=c1c(Cl)c(Cl)cnn1CCOc1cccc(Br)c1`, the IC50 is over 10 µM and the IC90 is over 10 µM.

Turning to `CCN(c1ccccc1)S(=O)(=O)c1ccc(Cl)c(NC(=O)C2(c3ccc(Cl)cc3)CCCC2)c1`, the IC50 is over 10 µM and the 90% effect concentration (IC90) is over 10 µM.

Turning to `c1ccc(-c2csc3nc(-c4cccnc4)nc(NCC45CC6CC(CC(C6)C4)C5)c23)cc1`, the concentration for half-maximal inhibition (IC50) was over 10 µM and the IC90 was over 10 µM.

As for `COc1ccc2c(C)cc(SCc3nc(=O)c4c(-c5ccc(Cl)cc5)csc4[nH]3)nc2c1`, the IC50 was over 10 µM and the 90% effect concentration (IC90) is over 10 µM.

For the molecule `COc1ccc(Cl)cc1NC(=O)CN(C)c1nc(-c2cccnc2)nc2sc3c(c12)CCCC3`, the IC50 was over 10 µM and the IC90 is over 10 µM.

For the molecule `COc1ccccc1NS(=O)(=O)c1ccc2oc(Nc3ccc(Cl)c(C(F)(F)F)c3)nc2c1`, the 50% inhibitory concentration (IC50) was over 10 µM and the 90% effect concentration (IC90) was over 10 µM.

Consider `CC(C)(C)c1ccc(/C=N/NC(=O)CNc2ccccc2F)cc1`, for which the IC50 was over 10 µM and the IC90 was over 10 µM.
